Results taken from patent US12090225B2 (Avalyn Pharma Inc., priority 2018, dated 2024).

Experiments:
[1] = 7 day stability testing of salts (40° C./75% RH, 80° C., ambient light; HPLC purity, XRPD); assay type: physicochemical; conditions: for Purity (%) / XRPD pattern after 7 day stability testing: listed as HBr salt
Method: High Performance Liquid Chromatography-Ultraviolet Detection (HPLC-UV): Instrument: Dionex Ultimate 3000; Column: Acquity CSH C18 100 mm×2.1 mm 1.7 μm; Column Temperature: 50° C.; Autosampler Temperature: Ambient; UV wavelength: 210 nm; Injection Volume: 4 μL; Flow Rate: 0.6 mL/min; Mobile Phase A: 0.1% formic acid in water; Mobile Phase B: 0.1% formic acid in acetonitrile. The HPLC method used the gradient in Table 2.
FT-IR appeared to be consistent with the structure. […] The material was physically stable to changes in temperature and humidity when stored for one week.
A new, poorly crystalline pattern was produced when stored at 40° C./75% RH—Pattern 4.
Purity of these materials remained unchanged (as shown in Table) apart from the sample stored at ambient light, where a 0.5% drop in purity was observed.

[2] = Disproportionation/hydration studies (pH, XRPD pattern); assay type: physicochemical; conditions: for pH Pre-Agitation: listed as HBr salt
Excerpt: No XRPD data could be compiled on the hydration or disproportionation of the salt due to the high solubility in water and acetone/water mixtures.
The salt only remained Pattern 1 at 0.3 aw. New patterns 6 and 7 are likely hydrated due to the high water activity conditions for production.

[3] = Aqueous solubility assessment of salts; assay type: physicochemical; conditions: primary screen samples
[4] = Citrate buffer formulation; assay type: physicochemical
[5] = 0.5 mg/mL solubility assessment (filtered/unfiltered); assay type: physicochemical; conditions: 0.5 mg/mL experiment; for pH: listed as HBr
[6] = Solid state and chemical stability of nintedanib HBr and HCl salts through 6 months; assay type: physicochemical; conditions: for Weight loss: TGA/DSC
Excerpt: Table 24 and Table 25 summarize the total impurities (by HPLC), polymorphic form (by X-ray powder diffraction) and, where applicable, weight loss (by TGA/DSC) for both the HCl and HBr salt forms. […] There were no changes in polymorphic form for both salt forms stored at 25 C/60% RH condition.

[7] = Therapeutic bleomycin model: dose levels and lung pharmacokinetic comparison; assay type: in vivo, Sprague Dawley rats; conditions: rat
[8] = Formulation development/optimization and long-term stability of nintedanib HBr and HCl formulations
[9] = Plasma and lung pharmacokinetics of nintedanib esylate, oral vs intratracheal aerosol; assay type: in vivo, C57BL/6 mice; conditions: for Lung Cmax / plasma AUC as fraction of the 100 mg/kg oral dose: mice
[10] = Human inhaled dose projection vs Ofev 150 mg oral; conditions: human projection
[11] = Therapeutic silica model: body and lung weights; assay type: in vivo, C57BL/6 mice; conditions: oral 30 mg/kg BID and inhaled (IN) 0.021-[…] QD nintedanib HBr
Method: Briefly, acclimated 20-22 g female C57BL/6 mice were administered silica on day 1 by the intratracheal route. On the tenth day, treatment was initiated with either saline or nintedanib. […] Sham and silica control groups received saline either IN or PO. Five animals were enrolled into sham groups, 10 animals enrolled into each PO dose groups, and 13 animals were enrolled into each IN dosing group. […] Body weights were collected throughout the study, with lung weights at termination. Flexivent was performed to determine elastance (lung function; Table 59). Left lungs were extracted, stained as assessed for parenchymal collagen (Table 60) and α-smooth muscle actin (αSMA; Table 61), while right lungs were assessed for interleukin-1β (IL-1β; Table 62). As expected, all mice administered silica lost weight from days 0 to 4. All silica administered mice began to recover from weight loss at around day 6 and continued recovery reaching their initial weight by day 10 (first therapeutic intervention). […] Neither oral or inhaled (IN) treatment or vehicles altered these characteristics.

[12] = cited from earlier work
[13] = 0.5 mg/mL citrate buffer experiments, listed as HBr
[14] = 40° C./75% RH, 2 months, listed as Nintedanib HBr salt
[15] = 40° C./75% RH, 6 months, listed as Nintedanib HBr salt

COC(=O)c1ccc2c(c1)NC(=O)/C2=C(\Nc1ccc(N(C)C(=O)CN2CCN(C)CC2)cc1)c1ccccc1 [Nintedanib HBr]
Purity (%) ([1]; 40° C./75% RH, 7 day stability testing): 99.7%
XRPD pattern after 7 day stability testing ([1]; 40° C./75% RH): mixture of Pattern 1 and 4
XRPD pattern after 7 day stability testing ([1]; 80° C. and ambient conditions/light): remain Pattern 1
Purity (%) ([1]; 80° C., 7 day stability testing): 99.6%
Purity (%) ([1]; Ambient, 7 day stability testing): 99.2%
Purity (%) ([1]; Input): 99.7%
drop in purity ([1]; stored at ambient light, 7 day): 0.5%
Pattern (disproportionation/hydration) ([2]; Water Activity 0.3): 1
pH Pre-Agitation ([2]; Water Activity 0.3 (acetone/water)): 4.84
Pattern (disproportionation/hydration) ([2]; Water Activity 0.6): 4
pH Pre-Agitation ([2]; Water Activity 0.6 (acetone/water)): 5.38
Pattern (disproportionation/hydration) ([2]; Water Activity 0.9): New pattern (Pattern 6)
pH Pre-Agitation ([2]; Water Activity 0.9 (acetone/water)): 5.56
Pattern (disproportionation/hydration) ([2]; Water Activity 1): New pattern (Pattern 7)
pH Pre-Agitation ([2]; Water Activity 1.0 (water)): 2.27
pH (aqueous solubility measurement) [3]: 3.95
solubility ([3]; water, thermodynamic from solid, read-out: Solubility (aqueous)): ~5000 µg/mL
Initial pH [4, 13]: 4.83
pH 1 h [4, 13]: 4.82
attempt to solubilize in citrate buffer ([4]; pH 4.8 buffer, ca. 0.5 mg/mL (Nintedanib)): unsuccessful
concentration for filtered sample compared to unfiltered ([5]; listed as HBr salt): 94%
pH ([5]; Filtered): 5.31
pH ([5]; Unfiltered): 5.12
Polymorphic form ([6]; 25° C./60 % RH, 1 week): Pattern 1
Total impurities ([6]; 25° C./60 % RH, 1 week, listed as Nintedanib HBr salt): 0.40%
Polymorphic form ([6]; 25° C./60 % RH, 2 months): Pattern 1
Total impurities ([6]; 25° C./60 % RH, 2 months, listed as Nintedanib HBr salt): 0.42%
Polymorphic form ([6]; 25° C./60 % RH, 4 weeks): Pattern 1
Total impurities ([6]; 25° C./60 % RH, 4 weeks, listed as Nintedanib HBr salt): 0.33%
Polymorphic form ([6]; 25° C./60 % RH, 6 months): Pattern 1
Total impurities ([6]; 25° C./60 % RH, 6 months, listed as Nintedanib HBr salt): 0.47%
Polymorphic form ([6]; 25° C./60 % RH, Initial): Pattern 1
Weight loss ([6]; 25° C./60 % RH, Initial, listed as Nintedanib HBr salt): 0.23%
Total impurities ([6]; 40° C./75% RH, 1 week, listed as Nintedanib HBr salt): 0.43%
Weight loss ([6]; 40° C./75% RH, 2 months): 4.12%
Polymorphic form [6, 14]: Pattern 4
Total impurities [6, 14]: 0.41%
Weight loss ([6]; 40° C./75% RH, 4 weeks): 1.33%
Weight loss ([6]; 40° C./75% RH, 6 months): 3.72%
Polymorphic form [6, 15]: Pattern 4
Total impurities [6, 15]: 0.44%
Weight loss ([6]; 40° C./75% RH, Initial, listed as Nintedanib HBr salt): 0.23%
Lung AUC ([7]; Oropharyngeal (OP) 0.05 mg/kg): 1.6 mg·h/kg
Lung Cmax ([7]; Oropharyngeal (OP) 0.05 mg/kg): 1.4 µg/g
Lung AUC ([7]; Oropharyngeal (OP) 0.25 mg/kg): 7.8 mg·h/kg
Lung Cmax ([7]; Oropharyngeal (OP) 0.25 mg/kg): 7.0 µg/g
Lung AUC ([7]; Oropharyngeal (OP) 0.375 mg/kg): 11.6 mg·h/kg
Lung Cmax ([7]; Oropharyngeal (OP) 0.375 mg/kg): 10.5 µg/g
compatibility with citric acid, fumaric acid [8]: incompatible
upper concentration limit (no re-crystallization) [8]: 1.38 mg/mL

COC(=O)c1ccc2c(c1)NC(=O)/C2=C(\Nc1ccc(N(C)C(=O)CN2CCN(C)CC2)cc1)c1ccccc1 [Nintedanib, methyl (3Z)-3-[[4-[methyl-[2-(4-methylpiperazin-1-yl)acetyl]amino]anilino]-phenylmethylidene]-2-oxo-1H-indole-6-carboxylate]
less IT nintedanib to achieve the same lung Cmax as oral delivery ([9]; 0.5 mg/kg IT compared to 100 mg/kg oral): about 200 fold
Lung Cmax ([9]; 2.5 mg/kg IT): 57.5 mcg/gram
plasma AUC as fraction of the 100 mg/kg oral dose ([9]; 2.5 mg/kg inhaled (IT)): about 1/9
plasma AUC as fraction of the 100 mg/kg oral dose ([9]; 10 mg/kg inhaled (IT)): ⅓
Lung Cmax ([9]; 100 mg/kg oral): 12.1 mcg/gram
device loaded dose resulting in the same lung AUC as the 150 mg oral dose [10]: 0.04 mg
device loaded dose resulting in the same plasma AUC as a 150 mg oral dose [10]: 0.42 mg
lung weights compared to control mice [11]: Neither oral nor inhaled (IN) nintedanib significantly affected lung weights
administered nintedanib excreted in the urine ([12]; in vivo): About 80%
oral bioavailability ([12]; oral nintedanib): 5%
